We go through 1 compound from patent publication US20070286892A1, “COMPOSITIONS AND METHODS FOR PREVENTING OR REDUCING POSTOPERATIVE ILEUS AND GASTRIC STASIS IN MAMMALS” (priority 2006, published 2007).

In series [1] the test system is gastric emptying and intestinal motility. In words: Charcoal transit model of postoperative ileus after abdominal surgery with cecal manipulation. In kind it is in vivo, rat. As to conditions: charcoal distance 4 h after oral meal, percent of full intestinal length, male Sprague Dawley rats. An excerpt:
The charcoal transit model is an accetable and established model to study the effects of abdominal surgery on intestinal motility. We followed the procedure as described by De Winter et al. (1997) (Reference: Effect of adrenergic and nitrergic blockade on experimental ileus in rats. British Journal of Pharmacology (1997) 120, 464-468. Benedicte Y. De Winter, Guy E. Boeckxstaens, Joris G. De Man, Tom G. Moreels, Arnold G. Herman & Paul A. Pelckmans). The model simulates the abdominal procedure in human and tests for gastric emptying and intestinal motility by the transfer of a charcoal meal fed to the animals.
Male Sprague Dawley rats, weighing 250-275 g (8 in group) were anesthetized with a xylazine/ketamine cocktail, injected IM, the abdomen was shaved and disinfected with alcohol and Betadyne. A 2.5 cm incision was made from the xyphoid process caudally. The intestinal contents was exteriorized onto wet gauze. The cecum was manipulated gently for 1 minute. The abdominal contents were replaced, the treatment was applied and the body wall closed with 4-0 PDS for the fascia and muscle layers. The skin was closed with wound clips. Treatment groups included two control groups, surgery (incision only) and naïve, and […], high and low dose of Tranilast gel, high and low dose of Tranilast ORC, as well as gel alone and ORC alone. 8 rats were included in each group with a total of 64 rats. The high and low dose Tranilast gel and gel alone treatments were prepared as described in Example 1. The high and low dose Tranilast ORC and ORC alone treatments were prepared as described in Example 2.
The rats were treated with an oral solution of charcoal (10%) in acacia gum (2%). Four hours following oral administration rats were euthanized with Euthasole. The intestines were exteriorized and the distance traveled by the charcoal meal was measured as well as the full length of the intestines (from the pylorus through the anus). Results are expressed as percent of distance traveled relative to the full length of the intestines.

Another series concerns adhesions. The settings on record: local delivery in gel (NaCMC) formulations at the surgical site; cited from earlier work.

In the case of `COc1ccc(/C=C/C(=O)Nc2ccccc2C(=O)O)cc1OC` [Tranilast], the “% GI Transfer” value is listed as 93.04% in series [1] (Gel preparation (3% Na-CMC), Tranilast high dose 18.0 mg applied locally); 90.68% in series [1] (Gel preparation (3% Na-CMC), Tranilast low dose 1.8 mg applied locally); 62.18% in series [1] (ORC preparation (INTERCEED mesh), Tranilast high dose 18.0 mg applied locally); 46.11% in series [1] (ORC preparation (INTERCEED mesh), Tranilast low dose 1.8 mg applied locally). Besides, the “Effects on wound healing at the surgical sites” value with adhesions is “no obvious effects on wound healing”.
